Assay results as given in patent US12616753B2, “HSP70 inhibitors and methods of using same” (THE WISTAR INSTITUTE, priority 2020, dated 2026).

Assays:
full length human HSP70 = molecular target: T1, full length human HSP70 (Homo sapiens, UniProt P0DMV8); assay: HSP70 mediated ATPase assay (Transcreener ADP-FI); type: biochemical
T1 construct: Five μL of 30 nM full length human HSP70 in assay buffer
Method: FIGS. 1A-1D show ATPase inhibition and direct binding of a novel HSP70 inhibitor. FIG. 1A: Compounds AP-3-97 and AP-4-139B are direct inhibitors of HSP70. HSP70 mediated ATPase activity was assessed using the TRANSCREENER® ADP-FI assay. Five microliters of 30 nM purified human HSP70 in assay buffer was added to test compounds for 30 minutes, followed by addition of excess ATP. After 15 minutes, reactions were stopped and fluorescence was assessed on a plate reader. Data are normalized to percent inhibition, where 100% is the value in the absence of HSP70, and 0% is the value in the presence of HSP70. Compounds shown include PET-16 (positive control) and the novel HSP70 inhibitors AP-3-97 and AP-4-139B. VY-3-277 was used as a negative control. FIG. 1B: Compound AP-4-139B binds HSP70. Whole cell extracts (WCE) from H1299 cells were incubated with 10 μM Biotin or with a Biotin-labeled variant of AP-4-139B (Biotin-AP-4-139B) for 5 hours. Biotin-AP-4-139B containing complexes were captured using NeutrAvidin resins and separated by SDS-PAGE. The Coomassie-stained protein band of approximately 70 kDa was excised and subjected to tryptic digestion and liquid chromatography-tandem mass spectrometry, and identified to be HSP70. FIG. 1C: H1299 cells were pre-treated with 10 μM of VY-3-277, PET-16, or AP-4-139B for 1 hour prior to the addition of 10 μM Biotin-AP-4-139B for 5 hours. Biotin-AP-4-139B containing complexes were captured by NeutrAvidin resins and immunoblotted using the indicated antibodies following SDS-PAGE. Whole cell extracts (WCE) were examined for the expression of HSP70 (input) and GRP75 (input) by Western blot analysis. FIG. 1D: Compound AP-4-139B directly binds purified human HSP70. […] Data were analyzed using the evaluation software from Biacore and the resulting sensograms were exported and re-plotted in GraphPad Prism.
HSP70 mediated ATPase activity was measured using the Transcreener® ADP-FI assay (BellBrook Labs). […] After 30 minutes, fluorescence at 560/620 nm was measured using the Envision plate reader. […]

[1] = test system: CRC cell lines (HT-29, LS411N, and SW620); assay: Trypan Blue exclusion viability assay, CRC cell lines; type: cell-based, human; conditions: 10 μM, 48 hours
Method: FIGS. 4A-4F show AP-4-139B is efficacious as a single agent against human CRC in vitro and in vivo. FIG. 4A: Three CRC cell lines (HT-29, LS411N, and SW620) were treated with 10 μM of PET-16 or AP-4-139B for 48 hours. Cell were then subjected to viability assays using Trypan Blue exclusion. *** p<0.001. […] FIGS. 4B-4C: A panel of six CRC cell lines (SW620, HT-29, HCT 116+/−p53, RKO, and LS411N) were plated at a density of 1,000 cells per well in 96-well plates. The next day, cells were treated with the indicated inhibitors for 72 hours. Cells were then subjected to the Alamar Blue cell viability assays. Shown are representative IC50 values of an average of six technical replicates and two biological replicates. FIG. 4D: 2.5×10^6 HT-29 cells were injected subcutaneously into the right flank of NSG mice. Once tumors reached an approximate volume of 100 mm^3, mice were separated randomly into two groups: control vs. AP-4-139B. Mice were treated with 12.5 mg/kg AP-4-139B three times a week. All mice were euthanized 22 days after the start of treatment. Tumor volumes were recorded using digital calipers and using the formula v=length×width^2×0.52. *** p<0.001. n=10 mice per group. FIG. 4E: Immunohistochemistry (IHC) analysis of HT-29 xenograft tumors treated with AP-4-139B. […]

CCD 841 CoN cells = assay: Trypan Blue exclusion viability assay, normal colon epithelial cells; type: cell-based; conditions: 10 μM, 48 hours
[2] = test system: CRC cell lines (SW620, HT-29, HCT 116+/−p53, RKO, and LS411N); assay: Alamar Blue cell viability assay, human CRC panel; type: cell-based; conditions: Homo sapiens; 72 hours; read-out: IC50, cytotoxicity in all CRC cell lines
Method: FIGS. 4A-4F show AP-4-139B is efficacious as a single agent against human CRC in vitro and in vivo. FIG. 4A: Three CRC cell lines (HT-29, LS411N, and SW620) were treated with 10 μM of PET-16 or AP-4-139B for 48 hours. Cell were then subjected to viability assays using Trypan Blue exclusion. *** p<0.001. […] FIGS. 4B-4C: A panel of six CRC cell lines (SW620, HT-29, HCT 116+/−p53, RKO, and LS411N) were plated at a density of 1,000 cells per well in 96-well plates. The next day, cells were treated with the indicated inhibitors for 72 hours. Cells were then subjected to the Alamar Blue cell viability assays. Shown are representative IC50 values of an average of six technical replicates and two biological replicates. FIG. 4D: 2.5×10^6 HT-29 cells were injected subcutaneously into the right flank of NSG mice. Once tumors reached an approximate volume of 100 mm^3, mice were separated randomly into two groups: control vs. AP-4-139B. Mice were treated with 12.5 mg/kg AP-4-139B three times a week. All mice were euthanized 22 days after the start of treatment. Tumor volumes were recorded using digital calipers and using the formula v=length×width^2×0.52. *** p<0.001. n=10 mice per group. FIG. 4E: Immunohistochemistry (IHC) analysis of HT-29 xenograft tumors treated with AP-4-139B. Shown are representative images (4-6 random fields of view per condition) of Ki67 (proliferation) and Cleaved Lamin A (cell death). n=4 mice per group. Scale bar=100 μm. Respective IgG antibody was used as the negative control.

T1 sequence (P0DMV8 whole entry): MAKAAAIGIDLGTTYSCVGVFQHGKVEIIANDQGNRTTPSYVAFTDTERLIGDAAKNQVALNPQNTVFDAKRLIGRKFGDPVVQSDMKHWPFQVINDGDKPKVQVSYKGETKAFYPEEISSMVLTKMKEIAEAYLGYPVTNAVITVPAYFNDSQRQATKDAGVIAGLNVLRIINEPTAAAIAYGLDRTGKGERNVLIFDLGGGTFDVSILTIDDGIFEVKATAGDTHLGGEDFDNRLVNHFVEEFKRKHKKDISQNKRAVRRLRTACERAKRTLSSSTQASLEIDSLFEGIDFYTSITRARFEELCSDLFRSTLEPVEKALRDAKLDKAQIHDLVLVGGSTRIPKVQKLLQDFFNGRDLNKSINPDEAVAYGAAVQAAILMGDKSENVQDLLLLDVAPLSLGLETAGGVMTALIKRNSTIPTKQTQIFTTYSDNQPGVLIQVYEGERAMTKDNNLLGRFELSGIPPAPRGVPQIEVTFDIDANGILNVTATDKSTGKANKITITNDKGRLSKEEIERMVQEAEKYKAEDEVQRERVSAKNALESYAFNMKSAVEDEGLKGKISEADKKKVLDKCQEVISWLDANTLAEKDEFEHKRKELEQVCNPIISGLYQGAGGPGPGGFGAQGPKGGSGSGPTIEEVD

SMILES	inhibition of HSP70 ATPase activity (in words) (full length human HSP70)	decrease of CRC cell viability [1]	toxicity to normal colon epithelial cells (CCD 841 CoN cells)	IC50 [2]	IC50 (full length human HSP70)
c1ccc(-c2cn3nc(CCCCCC[P+](c4ccccc4)(c4ccccc4)c4ccccc4)sc3n2)cc1 [AP-4-139B, Triphenyl(6-(6-phenylimidazo[2,1-b][1,3,4]thiadiazol-2-yl)hexyl)phosphonium bromide]	markedly superior potency	markedly more cytotoxic	far less sensitive	1.5 to 3 µM	–
C(#C[P+](c1ccccc1)(c1ccccc1)c1ccccc1)c1ccccc1 [PET-16, Triphenyl(phenylethynyl)phosphonium bromide, reference compound]	–	modest ability to decrease CRC cell viability	–	–	~3 µM
